The source of these data is patent publication US20220389026A1, “TETRACYCLIC COMPOUND USED AS CDC7 INHIBITOR” (Chia Tai Tianqing Pharmaceutical Group Co., Ltd., priority 2019, published 2022).

The target of series [1] is T1, CDC7/DBF4 (Homo sapiens, UniProt O00311). In words: Inhibitory effect against activity of Cdc7/DBF4 kinase (ADP-Glo kit). Format: biochemical. The following applies: 10 μM ATP, 25° C., 60 min. More on the design: purchased Promega. As for the experimental part: Experimental Example 1. Detection of Inhibitory Effect of Compounds Against Activity of Cdc7/DBF4 Kinase
Cdc7/DBF4 kinase detection kit purchased from Promega; and
(§1) Nivo multi-marker analyzer (PerkinElmer).
An enzyme, a substrate, adenosine triphosphate and an inhibitor were diluted with the kinase buffer in the kit.
A test compound was serially 5-fold diluted to an 8th concentration, i.e., from 10 μM to 0.13 nM, with the DMSO concentration being 5%, and the duplicate well experiment was set up. To a microplate were added 1 μL of inhibitors of various concentration gradients, 2 μL of CDC7/DBF4 kinase (6.25 ng), 2 μL of a mixture of substrate and ATP (10 μM adenosine triphosphate, 0.2 μg/μL substrate), and the final concentration gradient of the compound was diluted from 2 μM to 0.025 nM. The reaction system was left reacting at 25° C. for 60 min. After the reaction was completed, 5 μL of ADP-Glo reagent was added to each well, and the reaction was continued at 25° C. for 40 min. After the reaction was completed, 10 μL of the kinase detection reagent was added to each well. After 30 min of reaction at 25° C., the chemiluminescence was read using a multi-marker analyzer, with an integration time of 0.5 s.
The original data were converted to inhibition rate using the equation (Sample−Min)/(Max−Min)×100%, and the IC50 value was then curve fitted using four parameters (obtained from the “log(inhibitor) vs. response-Variableslope” model in GraphPadPrism). Table 1 provides the inhibitory activity of the compounds disclosed herein against Cdc7/DBF4 kinase.

Series [2] deals with T1, CDC7/DBF4. The note with it: cited from earlier work.
The test system of series [3] is colo205 cell line with high expression of Cdc7. The note with it: read-out: COL0205 IC50; cited from earlier work.
For another series, the system named is tumors in 25 PDX models. The note with it: cited from earlier work.
The conditions of series [4]: cited from earlier work.
The next series relates to COLO205 cells. In words: Inhibitory activity against COLO205 cell proliferation (CellTiter-Glo). Format: cell-based. The note with it: Homo sapiens, COLO 205, 72 h; 3 days incubation. As for the experimental part: Experimental Example 2. Detection of Inhibitory Effect of Compounds Against Activity of Colo205 Cells
1640 medium; fetal bovine serum; penicillin/streptomycin antibiotics purchased from Wisent;
CellTiter-Glo (chemiluminescence detection reagent for cell viability) reagent purchased from Promega;
COLO205 cell line purchased from Wuhan Procell Life Science&Technology Co., Ltd; and
as §1
COLO205 cells were plated on to white 96-well plates by adding 80 μL of cell suspension (containing 3000 COLO205 cells) to each well. The cell plate was incubated in a CO2 incubator overnight.
A test compound was serially 3-fold diluted to an 8th concentration, i.e., from 2 mM to 920 nM, and the duplicate well experiment was set up. […] Another cell plate was read for signal values on the day of compound addition, and these values were used as the […] in data analysis. The chemiluminescence detection reagent for cell viability was added to this cell plate at 25 μL per well and the luminescence signals were stabilized by incubation at room temperature for 10 min. Readings were taken using a multi-marker analyzer.
The chemiluminescence detection reagent for cell viability was added to the cell plate at 25 μL per well and the luminescence signals were stabilized by incubation at room temperature for 10 min. […]

pIC50: −log10 of the molar value. Read-outs that look alike come from different tables or passages of the source.

T1 sequence (O00311 whole entry): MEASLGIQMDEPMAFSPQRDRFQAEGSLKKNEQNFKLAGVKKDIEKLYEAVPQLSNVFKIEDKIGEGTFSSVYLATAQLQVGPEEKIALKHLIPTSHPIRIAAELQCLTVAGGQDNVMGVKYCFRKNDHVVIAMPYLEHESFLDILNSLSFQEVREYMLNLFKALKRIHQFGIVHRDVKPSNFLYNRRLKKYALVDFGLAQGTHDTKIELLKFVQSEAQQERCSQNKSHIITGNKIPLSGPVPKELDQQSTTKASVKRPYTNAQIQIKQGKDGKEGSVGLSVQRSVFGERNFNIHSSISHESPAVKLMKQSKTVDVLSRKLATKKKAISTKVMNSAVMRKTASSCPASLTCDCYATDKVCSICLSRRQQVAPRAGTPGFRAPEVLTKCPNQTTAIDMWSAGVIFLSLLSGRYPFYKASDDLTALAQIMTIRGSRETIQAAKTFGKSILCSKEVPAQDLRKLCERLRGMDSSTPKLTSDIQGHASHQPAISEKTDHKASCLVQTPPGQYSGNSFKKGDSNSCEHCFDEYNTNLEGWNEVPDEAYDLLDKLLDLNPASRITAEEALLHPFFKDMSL
T1 sequence (Q9UBU7 whole entry partner): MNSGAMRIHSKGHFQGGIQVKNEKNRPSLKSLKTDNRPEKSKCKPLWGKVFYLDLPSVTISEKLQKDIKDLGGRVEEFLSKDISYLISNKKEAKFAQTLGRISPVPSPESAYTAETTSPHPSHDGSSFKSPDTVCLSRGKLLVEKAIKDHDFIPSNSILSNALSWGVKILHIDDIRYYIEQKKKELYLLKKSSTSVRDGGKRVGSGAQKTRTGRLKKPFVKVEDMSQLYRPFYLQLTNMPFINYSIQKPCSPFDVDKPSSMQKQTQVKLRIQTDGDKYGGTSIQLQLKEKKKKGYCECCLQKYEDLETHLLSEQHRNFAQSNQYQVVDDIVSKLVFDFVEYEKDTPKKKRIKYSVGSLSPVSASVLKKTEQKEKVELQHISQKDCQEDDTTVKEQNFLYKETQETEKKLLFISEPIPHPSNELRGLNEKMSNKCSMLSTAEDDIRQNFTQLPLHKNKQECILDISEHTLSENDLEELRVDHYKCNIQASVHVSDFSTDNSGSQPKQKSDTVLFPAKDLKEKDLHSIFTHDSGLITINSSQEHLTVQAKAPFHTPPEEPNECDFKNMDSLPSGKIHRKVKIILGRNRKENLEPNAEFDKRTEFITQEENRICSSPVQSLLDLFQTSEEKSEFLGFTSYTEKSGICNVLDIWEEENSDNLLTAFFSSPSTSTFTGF

Turning to `O=c1[nH]c([C@@H]2CCCN2)nc2c3c(oc12)-c1c[nH]nc1CCC3` [Compound 2-1], on CDC7/DBF4 [1], the pIC50 is 9.02.
For `O=c1[nH]c([C@H]2CCCN2)nc2c3c(oc12)-c1c[nH]nc1CCC3` [Compound 2-2], on CDC7/DBF4 [1], the negative logarithm of the IC50 (pIC50) is 8.85.
Consider `Cc1[nH]ncc1-c1cc2nc([C@@H]3CC4CCN3CC4)[nH]c(=O)c2s1` [TAK-931], for which the pIC50 at CDC7/DBF4 [2] is 8.59. The negative logarithm of the IC50 (pIC50) in series [3] is 7.07. In the series with tumors in 25 PDX models, the “inhibitory activity against tumors in PDX models” value is recorded as “excellent inhibitory activity”. Also, in series [4], the “clearance rate in vivo” value is “high clearance rate” and the half-life in vivo result is “short half-life”.
With `O=c1[nH]c(C2CC3CCN2CC3)nc2c3c(oc12)-c1c[nH]nc1CCC3` (single isomer, unassigned) [Compound 1-1], the pIC50 against CDC7/DBF4 [1] is 8.83.
Still for that read-out and setting: the value for `CN1CCC[C@@H]1c1nc2c3c(oc2c(=O)[nH]1)-c1c[nH]nc1CCC3` [Compound 3-2] was 8.71.
Consider `CN1CCC[C@H]1c1nc2c3c(oc2c(=O)[nH]1)-c1c[nH]nc1CCC3` [Compound 3-1], for which the pIC50 at CDC7/DBF4 [1] is 9.22.
Turning to `O=c1[nH]c(C2CC3CCN2CC3)nc2c3c(oc12)-c1c[nH]nc1CCC3` (single isomer, unassigned) [Compound 1-2], the negative-log IC50 (pIC50) in the series on COLO205 cells was 7.29; against CDC7/DBF4 [1], 8.55.
